The source of these data is PubChem BioAssay AID330 (DTP/NCI, 2004).

Several values for one entry are separate records, joined by “and”; a condition that tells them apart may be missing. Equal entries are not always repeated. Toxic doses and inconclusive results are not listed.

The assay concerns P388 leukemia ip, CD2F1 mice, survival T/C. Nature of the assay: NCI In Vivo Anticancer Drug Screen. Data for tumor model P388 Leukemia (intraperitoneal) in CD2F1 (CDF1) mice. The note with it: endpoint: median survival time, higher = longer survival. A digest of the protocol:
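Mice carrying the transplanted tumor received test compound or vehicle. Survival was recorded in each group, and the value is the treated-group measurement divided by that of the vehicle-treated control group.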

[1] abbreviates: dose: 50.0 mg/kg/injection, schedule: Q01DX005 (ip), vehicle: saline with Tween-80.
The mark [2] stands for this setting: dose: 100.0 mg/kg/injection, schedule: Q01DX005 (ip), vehicle: saline with Tween-80.
Setting [3] is: dose: 200.0 mg/kg/injection, schedule: Q01DX005 (ip), vehicle: saline with Tween-80.
Where [4] appears, read: dose: 50.0 mg/kg/injection, schedule: Q01DX009 (ip), vehicle: saline with Tween-80.
Setting [5] is: dose: 50.0 mg/kg/injection, schedule: Q01DX009 (ip), vehicle: saline.
Where [6] appears, read: dose: 100.0 mg/kg/injection, schedule: Q01DX009 (ip), vehicle: saline.
Where [7] appears, read: dose: 200.0 mg/kg/injection, schedule: Q01DX009 (ip), vehicle: saline.
Where [8] appears, read: dose: 12.5 mg/kg/injection, schedule: Q01DX009 (ip), vehicle: saline.
Setting [9] is: dose: 25.0 mg/kg/injection, schedule: Q01DX009 (ip), vehicle: saline.
Setting [10] is: dose: 50.0 mg/kg/injection, schedule: Q01DX005 (ip), vehicle: saline.
Setting [11] is: dose: 100.0 mg/kg/injection, schedule: Q01DX005 (ip), vehicle: saline.
[12] abbreviates: dose: 6.25 mg/kg/injection, schedule: Q01DX009 (ip), vehicle: saline.
[13] abbreviates: dose: 60.0 mg/kg/injection, schedule: Q01DX005 (ip), vehicle: saline with Tween-80.
[14] abbreviates: dose: 120.0 mg/kg/injection, schedule: Q01DX005 (ip), vehicle: saline with Tween-80.
Where [15] appears, read: dose: 240.0 mg/kg/injection, schedule: Q01DX005 (ip), vehicle: saline with Tween-80.

Consider `CC(C)CC(C)N(C(=S)S)C(C)CC(C)C.[Zn+2]` (stereo unspecified), for which the T/C by setting is: under setting [1], 100 % of control; under setting [2], 104 % of control; under setting [3], 100 % of control.
Turning to `C=C(CN(C)C)C(=O)c1ccccc1Cl`, the T/C (dose: 1.8 mg/kg/injection, schedule: Q01DX005 (ip), vehicle: saline) was 109 % of control; the T/C (dose: 3.75 mg/kg/injection, schedule: Q01DX005 (ip), vehicle: saline) is 106 % of control; the T/C (dose: 7.5 mg/kg/injection, schedule: Q01DX005 (ip), vehicle: saline) is 105 % of control and 107 % of control.
Consider `COc1cc2cnccc2cc1O`, for which the T/C runs as follows: (dose: 6.25 mg/kg/injection, schedule: Q01DX009 (ip), vehicle: water) 92 % of control; (dose: 12.5 mg/kg/injection, schedule: Q01DX009 (ip), vehicle: water) 103 % of control; (dose: 25.0 mg/kg/injection, schedule: Q01DX009 (ip), vehicle: water) 98 % of control; (dose: 50.0 mg/kg/injection, schedule: Q01DX009 (ip), vehicle: water) 95 % of control; (dose: 100.0 mg/kg/injection, schedule: Q01DX009 (ip), vehicle: water) 110 % of control.
Turning to `CCOC(=O)Sc1ncnc2nc[nH]c12`, the T/C reads like this: (dose: 33.0 mg/kg/injection, schedule: Q01DX009 (ip), vehicle: saline with Tween-80) 113 % of control; under setting [4], 122 % of control; (dose: 75.0 mg/kg/injection, schedule: Q01DX009 (ip), vehicle: saline with Tween-80) 122 % of control; (dose: 100.0 mg/kg/injection, schedule: Q04DX003 (ip), vehicle: saline with Tween-80) 104 % of control; (dose: 200.0 mg/kg/injection, schedule: Q04DX003 (ip), vehicle: saline with Tween-80) 108 % of control.
For the compound `O=c1oc(-c2ccccc2O)ns1`, the T/C runs as follows: (dose: 100.0 mg/kg/injection, schedule: Q01DX009 (ip), vehicle: Klucel (hydroxypropylcellulose) (HPC)) 98 % of control; (dose: 200.0 mg/kg/injection, schedule: Q01DX009 (ip), vehicle: Klucel (hydroxypropylcellulose) (HPC)) 102 % of control; (dose: 400.0 mg/kg/injection, schedule: Q01DX009 (ip), vehicle: Klucel (hydroxypropylcellulose) (HPC)) 97 % of control.
Take `O=[N+]([O-])c1ccc(Sc2ncnc3nc[nH]c23)c2nonc12`: the T/C by setting is: (dose: 0.78 mg/kg/injection, schedule: Q01DX009 (ip), vehicle: Klucel (hydroxypropylcellulose) (HPC)) 105 % of control; (dose: 1.56 mg/kg/injection, schedule: Q01DX009 (ip), vehicle: Klucel (hydroxypropylcellulose) (HPC)) 109 % of control and 86 % of control; (dose: 3.12 mg/kg/injection, schedule: Q01DX009 (ip), vehicle: Klucel (hydroxypropylcellulose) (HPC)) 99 % of control and 104 % of control; (dose: 6.25 mg/kg/injection, schedule: Q01DX009 (ip), vehicle: Klucel (hydroxypropylcellulose) (HPC)) 105 % of control and 98 % of control; (dose: 12.5 mg/kg/injection, schedule: Q01DX009 (ip), vehicle: Klucel (hydroxypropylcellulose) (HPC)) 113 % of control and 116 % of control and 122 % of control; (dose: 25.0 mg/kg/injection, schedule: Q01DX009 (ip), vehicle: Klucel (hydroxypropylcellulose) (HPC)) 112 % of control.
Take `O=C1CC(=O)OCCOCCOCCO1`: the T/C runs as follows: under setting [5], 98 % of control; under setting [6], 117 % of control; under setting [7], 101 % of control.
As to `O=N[O-].O=N[O-].O=[N+]([O-])O.[Co+3].[NH-]CC[NH-].[NH-]CC[NH-]`, the T/C by setting is: under setting [8], 104 % of control; under setting [9], 98 % of control; under setting [5], 100 % of control and 98 % of control; under setting [6], 100 % of control.
Take `OC1C=CC2CCC1C2` (stereo unspecified): the T/C by setting is: under setting [4], 107 % of control; (dose: 100.0 mg/kg/injection, schedule: Q01DX009 (ip), vehicle: saline with Tween-80) 114 % of control; (dose: 200.0 mg/kg/injection, schedule: Q01DX009 (ip), vehicle: saline with Tween-80) 115 % of control.
Regarding `C/C(=N\N=Nc1ccc(N(C)C)cc1)c1ccccc1`, the T/C runs as follows: (dose: 60.0 mg/kg/injection, schedule: Q01DX005 (ip), vehicle: Klucel + Tween-80) 100 % of control; (dose: 120.0 mg/kg/injection, schedule: Q01DX005 (ip), vehicle: Klucel + Tween-80) 99 % of control.
For `O=NN(CCCl)C(=O)NC1[C@H](O)CCC[C@@H]1O` (stereo partly specified), the T/C (dose: 0.63 mg/kg/injection, schedule: Q01DX005 (ip), vehicle: saline) was 118 % of control; the T/C (dose: 2.5 mg/kg/injection, schedule: Q01DX005 (ip), vehicle: saline) was 159 % of control; the T/C (dose: 5.0 mg/kg/injection, schedule: Q01DX005 (ip), vehicle: saline) was 190 % of control and 267 % of control; the T/C (dose: 10.0 mg/kg/injection, schedule: Q01DX005 (ip), vehicle: saline) was 116 % of control and 206 % of control.
With `C=C=C(C)C(c1ccccc1)N(C)C` (stereo unspecified), the T/C by setting is: under setting [10], 108 % of control; under setting [11], 109 % of control.
Turning to `C1CN(P2(N3CC3)=NP(N3CC3)(N3CC3)=NP(N3CC3)(N3CC3)=N2)CCO1` (stereo unspecified), the T/C by setting is: (dose: 3.13 mg/kg/injection, schedule: Q01DX009 (ip), vehicle: saline) 123 % of control; (dose: 4.0 mg/kg/injection, schedule: Q01DX009 (ip), vehicle: saline) 161 % of control; under setting [12], 157 % of control; (dose: 8.0 mg/kg/injection, schedule: Q01DX009 (ip), vehicle: saline) 212 % of control; under setting [8], 183 % of control; (dose: 16.0 mg/kg/injection, schedule: Q01DX009 (ip), vehicle: saline) 174 % of control. Moreover, the T/C runs as follows: under setting [9], 215 % of control; (dose: 32.0 mg/kg/injection, schedule: Q01DX009 (ip), vehicle: saline) 235 % of control; under setting [5], 104 % of control; (dose: 64.0 mg/kg/injection, schedule: Q01DX009 (ip), vehicle: saline) 108 % of control; under setting [6], 86 % of control.
In the case of `COC(=O)C[CH2][Sn]([CH3])([CH3])[CH2]CC(=O)OC`, the T/C is 104 % of control (dose: 50.0 mg/kg/injection, schedule: Q01DX005 (ip), vehicle: Klucel (hydroxypropylcellulose) (HPC)) and 100 % of control (dose: 100.0 mg/kg/injection, schedule: Q01DX005 (ip), vehicle: Klucel (hydroxypropylcellulose) (HPC)).
For `COc1cc(-c2ccc(N=Nc3ccc4c(S(=O)(=O)O)cc(S(=O)(=O)O)c(N)c4c3O)c(OC)c2)ccc1N=Nc1ccc2c(S(=O)(=O)O)cc(S(=O)(=O)O)c(N)c2c1O`, the T/C by setting is: under setting [8], 94 % of control; under setting [9], 92 % of control.
In the case of `CSC(=O)NCCCN(C)C`, the T/C is 106 % of control under setting [10]; 107 % of control under setting [11]; 104 % of control (dose: 200.0 mg/kg/injection, schedule: Q01DX005 (ip), vehicle: saline).
Turning to `CCc1cccc(C)c1NC(=O)C(=O)CC(=O)c1ccc(Cl)cc1Cl`, the T/C runs as follows: under setting [13], 114 % of control; under setting [14], 116 % of control; under setting [15], 113 % of control.
The matching figures for `COC1(C)O[C@@]2(C)c3ccccc3C(=O)[C@@]2(c2ccccc2)O1` (stereo partly specified): 104 % of control, 97 % of control and 97 % of control.
For `NC(=O)c1ccnn1C1OC(CO)C(O)C1O` (stereo unspecified), the T/C is, setting by setting: (dose: 32.0 mg/kg/injection, schedule: Q01DX002 (ip), vehicle: saline) 107 % of control and 116 % of control; (dose: 64.0 mg/kg/injection, schedule: Q01DX002 (ip), vehicle: saline) 104 % of control and 112 % of control; (dose: 128.0 mg/kg/injection, schedule: Q01DX002 (ip), vehicle: saline) 107 % of control.
Turning to `CCOC(=O)Nc1c(C)noc1NC(C)=O`, the T/C was 100 % of control (dose: 100.0 mg/kg/injection, schedule: Q01DX001 (ip), vehicle: saline with Tween-80); 100 % of control (dose: 200.0 mg/kg/injection, schedule: Q01DX001 (ip), vehicle: saline with Tween-80); 95 % of control (dose: 400.0 mg/kg/injection, schedule: Q01DX001 (ip), vehicle: saline with Tween-80).
On to `CCOC(=O)CNC(=O)NNC(=O)OCC`, for which the T/C under setting [12] is 98 % of control; the T/C under setting [8] is 91 % of control; the T/C under setting [5] is 100 % of control; the T/C under setting [6] is 100 % of control; the T/C under setting [7] is 100 % of control.
As for `CCOc1ccc(CC)cc1Cc1ccc(OC)cc1`, the T/C is, setting by setting: under setting [1], 108 % of control; under setting [2], 117 % of control; under setting [3], 113 % of control.
